Data published in article PMC6193035, “Novel small molecules affecting cell membrane as potential therapeutics for avian pathogenic Escherichia coli” (Scientific Reports, 2018).
Values after ≈ are worked out from the molar mass of the structure shown. Marks after values point to notes of the source that are not given here.

Legend:
APEC O8 = experiment: MIC and MBC determination in M63 media; format: cell-based; details: Escherichia coli
APEC O78 [1] = experiment: Bacterial cytological profiling by confocal microscopy; format: cell-based, Escherichia coli; details: 2X MBC, 2 h
Description: Confocal microscopy was used for bacterial cytological profiling (BCP) to identify the cellular pathways targeted by SMs as described previously. […] After incubation, treated cultures were centrifuged, washed, and resuspended in 100 µL PBS. FM4-64 (#T13320 Molecular Probes/Invitrogen) (1 µg/mL) and SYTO-9 (#S34854 Molecular Probes/Invitrogen) (5 µM) were added to the bacterial cultures and incubated for 45 mins at room temperature with shaking at 150 rpm. Cultures were then centrifuged, washed, and resuspended in PBS to 1/10th volume of the original cultures.

APEC O115 = experiment: MIC and MBC determination in M63 media; format: cell-based; details: Escherichia coli
[2] = tested on: intracellular APEC O78 in HD11 cells; experiment: Intracellular survival assay; format: cell-based, Escherichia coli
Description: (§1) Intracellular survival assay was conducted as described previously[28],[29] to determine the effect of cidal SMs on APEC survival in phagocytic (HD11, THP-1) and non-phagocytic (Caco-2) cells. Briefly, mid-logarithmic phase grown APEC O78, O1, and O2 were washed and adjusted to 1 × 10^7 CFU/mL in cell culture incomplete media (no FBS and antibiotics). One-hundred microlitres adjusted APEC suspension was added at multiplicity of infection (MOI) 10 to wells of 96-well cell culture plate containing cultured macrophage (HD11, THP-1) and epithelial cells (Caco-2) and incubated for 1 h and 3 h, respectively. […] The cells were then lysed with 100 µL of 0.1% Triton X-100 for 5 mins, serially diluted, and plated on LB agar plate to enumerate viable bacteria. The intracellular bacteria in SMs treated wells were compared with DMSO (1%) treated wells. Two independent experiments in duplicate wells for each concentration of SMs were conducted.

[3] = tested on: intracellular APEC O78 in Caco-2 cells; experiment: Intracellular survival assay; format: cell-based, Escherichia coli
Description: as §1

[4] = tested on: intracellular APEC O2 in THP-1 cells; experiment: Intracellular survival assay; format: cell-based, Escherichia coli
Description: as §1

[5] = tested on: intracellular APEC O1 in THP-1 cells; experiment: Intracellular survival assay; format: cell-based, Escherichia coli
Description: as §1

[6] = tested on: intracellular APEC O1 in Caco-2 cells; experiment: Intracellular survival assay; format: cell-based, Escherichia coli
Description: as §1

[7] = tested on: intracellular APEC O2 in HD11 cells; experiment: Intracellular survival assay; format: cell-based, Escherichia coli
Description: as §1

[8] = tested on: intracellular APEC O1 in HD11 cells; experiment: Intracellular survival assay; format: cell-based, Escherichia coli
Description: as §1

[9] = tested on: intracellular APEC O2 in Caco-2 cells; experiment: Intracellular survival assay; format: cell-based, Escherichia coli
Description: as §1

[10] = tested on: intracellular APEC O78 in THP-1 cells; experiment: Intracellular survival assay; format: cell-based, Escherichia coli
Description: as §1

APEC O109 = experiment: MIC and MBC determination in M63 media; format: cell-based; details: Escherichia coli
APEC O2 = experiment: MIC and MBC determination in M63 media; format: cell-based; details: Escherichia coli
APEC O78 [11] = experiment: Loss of 260/280 nm absorbing materials assay; format: cell-based, Escherichia coli; details: 2X MBC, 1 h
Description: (§2) Membrane permeability assays (crystal violet (CV) uptake and loss of 260/280 nm absorbing materials) were conducted as described previously. […] CV uptake was measured using the formula: (OD DMSO − OD SM/OD DMSO × 100). Two independent experiments in duplicates were conducted.

APEC O78 [12] = experiment: MIC and MBC determination in M63 media; format: cell-based, Escherichia coli
Description: (§3) One microlitre SM of each concentration was transferred to each well of a 96-well plate containing 100 µL of the 0.05 OD600 adjusted APEC O78 culture in M63 media. Growth was monitored in Sunrise - Absorbance microplate reader as described above. MIC was indicated by lowest concentration of SM with non-elevated OD600 measurement. MBC was determined by absence of APEC growth on LB agar plate following subculture. […] Two independent experiments were conducted.

APEC O2-211 = experiment: MIC and MBC determination in M63 media; format: cell-based; details: Escherichia coli; APEC O2-211, M63 media
APEC O78 [13] = experiment: Crystal violet (CV) uptake assay; format: cell-based, Escherichia coli; details: 2X MBC, 30 mins; P < 0.05, Student's t-test
Description: as §2

APEC O78-53 = experiment: MIC and MBC determination in M63 media; format: cell-based; details: Escherichia coli; APEC O78-53, M63 media
Description: as §3

Question: How did the MBC (APEC O8) turn out when `COc1cc(CNCCc2ccc(C)cc2)ccc1OCC(O)CN1CCCC1` (stereo not shown) [SM3] was run?
Answer: 100 µM (≈ 39.9 µg/mL)

Question: And the MIC (APEC O8)?
Answer: 100 µM (≈ 39.9 µg/mL)

Question: What about the “cytological profile (FM4-64 / SYTO-9 staining)” value (APEC O78 [1]) of the same compound?
Answer: bright red foci at random positions throughout the cell indicating membrane defects (membrane pore formers)

Question: And the MBC (APEC O115)?
Answer: 100 µM (≈ 39.9 µg/mL)

Question: And the MIC (APEC O115)?
Answer: 100 µM (≈ 39.9 µg/mL)

Question: What about the minimal effective concentration ([2]; Escherichia coli, O78, HD11, 6 h treatment, read-out: SMs intracellular APEC clearance concentration) of the same compound?
Answer: 100 µM

Question: What about the “intracellular APEC clearance concentration as multiple of MIC (superscript)” value ([2]; O78, HD11) of the same compound?
Answer: a (1X MIC)

Question: What about the “concentration at which the SM significantly (P < 0.01) reduced intracellular APEC (superscript of t-statistic)” value ([2]; O78, HD11, 6 h) of the same compound?
Answer: a (0.5X MIC)

Question: And the minimal effective concentration ([3]; Escherichia coli, O78, Caco-2, 6 h treatment, read-out: SMs intracellular APEC clearance concentration)?
Answer: 100 µM

Question: And the “intracellular APEC clearance concentration as multiple of MIC (superscript)” value ([3]; O78, Caco-2)?
Answer: a (1X MIC)

Question: What about the “concentration at which the SM significantly (P < 0.01) reduced intracellular APEC (superscript of t-statistic)” value ([3]; O78, Caco-2, 6 h) of the same compound?
Answer: a (0.5X MIC)

Question: And the minimal effective concentration ([4]; Escherichia coli, O2, THP-1, 6 h treatment, read-out: SMs intracellular APEC clearance concentration)?
Answer: 100 µM

Question: And the “concentration at which the SM significantly (P < 0.01) reduced intracellular APEC (superscript of t-statistic)” value ([4]; O2, THP-1, 6 h)?
Answer: a (0.5X MIC)

Question: And the minimal effective concentration ([5]; Escherichia coli, O1, THP-1, 6 h treatment, read-out: SMs intracellular APEC clearance concentration)?
Answer: 200 µM

Question: What about the “intracellular APEC clearance concentration as multiple of MIC (superscript)” value ([5]; O1, THP-1) of the same compound?
Answer: b (2X MIC)

Question: And the “concentration at which the SM significantly (P < 0.01) reduced intracellular APEC (superscript of t-statistic)” value ([5]; O1, THP-1, 6 h)?
Answer: a (0.5X MIC)

Question: What about the minimal effective concentration ([6]; Escherichia coli, O1, Caco-2, 6 h treatment, read-out: SMs intracellular APEC clearance concentration) of the same compound?
Answer: > 200 µM

Question: And the “concentration at which the SM significantly (P < 0.01) reduced intracellular APEC (superscript of t-statistic)” value ([6]; O1, Caco-2, 6 h)?
Answer: c (2XMIC)

Question: What about the minimal effective concentration ([7]; Escherichia coli, O2, HD11, 6 h treatment, read-out: SMs intracellular APEC clearance concentration) of the same compound?
Answer: 200 µM

Question: And the “intracellular APEC clearance concentration as multiple of MIC (superscript)” value ([7]; O2, HD11)?
Answer: b (2X MIC)

Question: And the “concentration at which the SM significantly (P < 0.01) reduced intracellular APEC (superscript of t-statistic)” value ([7]; O2, HD11, 6 h)?
Answer: a (0.5X MIC)

Question: What about the minimal effective concentration ([8]; Escherichia coli, O1, HD11, 6 h treatment, read-out: SMs intracellular APEC clearance concentration) of the same compound?
Answer: 200 µM

Question: And the “concentration at which the SM significantly (P < 0.01) reduced intracellular APEC (superscript of t-statistic)” value ([8]; O1, HD11, 6 h)?
Answer: a (0.5X MIC)

Question: And the minimal effective concentration ([9]; Escherichia coli, O2, Caco-2, 6 h treatment, read-out: SMs intracellular APEC clearance concentration)?
Answer: > 200 µM

Question: What about the “concentration at which the SM significantly (P < 0.01) reduced intracellular APEC (superscript of t-statistic)” value ([9]; O2, Caco-2, 6 h) of the same compound?
Answer: b (1X MIC)

Question: And the minimal effective concentration ([10]; Escherichia coli, O78, THP-1, 6 h treatment, read-out: SMs intracellular APEC clearance concentration)?
Answer: 100 µM

Question: What about the “intracellular APEC clearance concentration as multiple of MIC (superscript)” value ([10]; O78, THP-1) of the same compound?
Answer: a (1X MIC)

Question: And the “concentration at which the SM significantly (P < 0.01) reduced intracellular APEC (superscript of t-statistic)” value ([10]; O78, THP-1, 6 h)?
Answer: a (0.5X MIC)

Question: What about the MBC (APEC O109) of the same compound?
Answer: 200 µM (≈ 79.7 µg/mL)

Question: And the MIC (APEC O109)?
Answer: 100 µM (≈ 39.9 µg/mL)

Question: And the MBC (APEC O2)?
Answer: 200 µM (≈ 79.7 µg/mL)

Question: And the MIC (APEC O2)?
Answer: 100 µM (≈ 39.9 µg/mL)

Question: What about the “280 nm absorbing materials in supernatant compared with DMSO” value (APEC O78 [11]) of the same compound?
Answer: significantly (P < 0.05, Student’s t-test) increased

Question: What about the “Absorbance 280 nm of treated supernatant” value (APEC O78 [11]; DMSO 2.58, superscript a P < 0.05 vs DMSO) of the same compound?
Answer: 2.84^a

Question: What about the “Absorbance 260 nm of treated supernatant” value (APEC O78 [11]; DMSO 3.77, superscript a P < 0.05 vs DMSO) of the same compound?
Answer: 3.77

Question: What about the “MBC relative to MIC” value (APEC O78 [12]) of the same compound?
Answer: identical to MIC

Question: What about the MIC (APEC O78 [12]; Escherichia coli) of the same compound?
Answer: 100 µM (≈ 39.9 µg/mL)

Question: What about the MBC (APEC O78 [12]; Escherichia coli, subculture on LB agar) of the same compound?
Answer: 100 µM (≈ 39.9 µg/mL)

Question: And the MBC (APEC O2-211)?
Answer: 100 µM (≈ 39.9 µg/mL)

Question: And the MIC (APEC O2-211)?
Answer: 100 µM (≈ 39.9 µg/mL)

Question: What about the “uptake of crystal violet compared with DMSO” value (APEC O78 [13]) of the same compound?
Answer: increased the uptake of crystal violet

Question: What about the MBC (APEC O78-53) of the same compound?
Answer: 200 µM (≈ 79.7 µg/mL)

Question: What about the MIC (APEC O78-53) of the same compound?
Answer: 100 µM (≈ 39.9 µg/mL)
